The values that follow are results of earlier work, collected in patent US20230337663A1, “AGRICULTURAL COMPOSITION” (REVOLUTION BIOTECH LLC, priority 2020, published 2023).

For this series the following is noted: Ecolabel Lubricant Substance Classification List.

As for Farnesene, mixture of isomers, the toxicity label entry is reported as “non-toxic”.
